Tests used:
[1] = target: BTK (Homo sapiens (Human), UniProt Q06187); assay: BTK enzyme experiment (ADP-Glo kinase assay); assay type: biochemical; details: 10 nM BTK, ATP 125 μM, Poly(Glu4, Tyr1), 90 minutes at 20° C.; read-out: BTK(WT) IC50
Procedure, shortened: (§1)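 Wild-type or C481S BTK, added as 2× solution at 10 nM, preincubated 10 min with 3-fold compound dilutions in 50 mM HEPES pH 7.5, 10 mM MgCl2, 2 mM DTT, 0.0015% Brij-35. ADP-Glo luminescence norm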

[2] = target: BTK (C481S) (Homo sapiens (Human), UniProt Q06187, C481S); assay: BTK C481S enzyme experiment (ADP-Glo kinase assay); assay type: biochemical; details: 10 nM BTK C481S, ATP 125 μM, Poly(Glu4, Tyr1), 90 minutes at 20° C.
Procedure, shortened: as §1

[3] = target: p-BTK (WT) (Homo sapiens (Human), UniProt Q06187); assay: p-BTK cell experiment, HEK293 transfected with WT-BTK plasmid (P-BTK Y223 sandwich ELISA); assay type: cell-based; details: HEK293 cells, compound cultured for two hours
Method: (§2) Day 1: HEK293 cells (ADDEXBIO, T0011001) at logarithmic growth phase were taken, digested with enzyme EDTA, collected and counted, and 2E6 cells were inoculated in a 10 cm culture dish and cultured overnight. Day 2: A mixed solution containing 6 μg of WT-BTK/C481S-BTK plasmid and 18 μL of FuGENE HD transfection reagent was prepared by using 1000 μL of Opti-MEM. After standing at room temperature for 10 minutes, the mixed solution was slowly added to the culture dish with a pipettor and cultured overnight. Day 3: The culture dish was taken out, and the cells were digested with enzyme EDTA, collected and counted, and 1E4 cells were inoculated in a 96-well cell culture plate and cultured overnight. A 3.16-fold gradient concentration stock solution of 1000× compound was prepared using DMSO, and placed at room temperature. Day 4: A prepared 1000× compound stock solution was taken, and diluted 200-fold to 5× compound stock solution with culture medium. 5× compound stock solution was added to each cell culture well with a final concentration of 1× compound stock solution and a DMSO content of 0.1%. DMSO was used as an experimental control. After the compound was added and cultured for two hours, the residual culture medium was removed. 100 μL of cell lysis buffer was added to each well, stood on ice for 30 minutes, and ultrasonically lysed with ice water for 5 minutes. After diluting the cell lysate in proportion, 80 μL of the mixture was transfer to an ELISA plate, and 80 μL of cell lysis buffer was added to the blank well. After incubating in an incubator at 37° C. for 2 hours, the plate was taken and the antibody incubation and color development termination operation were completed according to the instructions of Pathscan P-BTK (Y223) Sandwich ELISA Kit (Cell Signaling #23843 CA), and finally the OD value was read. The inhibition rate of the compound (%)=(ODcontrol−ODcompound)/(ODcontrol−ODblank)×100% was calculated. The compound gradient dilution concentration and the corresponding cell proliferation inhibition rate were fit by using Prism 8 four-parameter method, and IC50 value was calculated.

[4] = target: p-BTK (C481S) (Homo sapiens (Human), UniProt Q06187, C481S); assay: p-BTK cell experiment, HEK293 transfected with C481S-BTK plasmid (P-BTK Y223 sandwich ELISA); assay type: cell-based; details: HEK293 cells, compound cultured for two hours
Method: as §2

[5] = system: TMD-8 cells; assay: TMD-8 proliferation inhibition experiment; assay type: cell-based; details: human diffuse large B lymphoma cells, three days incubation
Procedure, shortened: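 Log-phase cells seeded in 384-well plates (600 TMD-8 in RPMI 1640, 2000 OCI-LY10 in IMDM, both 10% FBS), then exposed one day later to 3-fold compound dilutions at 0.25% DMSO for three days. ADP-Glo luminescence read; inhibition versus DMSO and medium-only blank, IC50 by four-parameter fit.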

Sequence of p-BTK (WT) (Q06187 whole entry): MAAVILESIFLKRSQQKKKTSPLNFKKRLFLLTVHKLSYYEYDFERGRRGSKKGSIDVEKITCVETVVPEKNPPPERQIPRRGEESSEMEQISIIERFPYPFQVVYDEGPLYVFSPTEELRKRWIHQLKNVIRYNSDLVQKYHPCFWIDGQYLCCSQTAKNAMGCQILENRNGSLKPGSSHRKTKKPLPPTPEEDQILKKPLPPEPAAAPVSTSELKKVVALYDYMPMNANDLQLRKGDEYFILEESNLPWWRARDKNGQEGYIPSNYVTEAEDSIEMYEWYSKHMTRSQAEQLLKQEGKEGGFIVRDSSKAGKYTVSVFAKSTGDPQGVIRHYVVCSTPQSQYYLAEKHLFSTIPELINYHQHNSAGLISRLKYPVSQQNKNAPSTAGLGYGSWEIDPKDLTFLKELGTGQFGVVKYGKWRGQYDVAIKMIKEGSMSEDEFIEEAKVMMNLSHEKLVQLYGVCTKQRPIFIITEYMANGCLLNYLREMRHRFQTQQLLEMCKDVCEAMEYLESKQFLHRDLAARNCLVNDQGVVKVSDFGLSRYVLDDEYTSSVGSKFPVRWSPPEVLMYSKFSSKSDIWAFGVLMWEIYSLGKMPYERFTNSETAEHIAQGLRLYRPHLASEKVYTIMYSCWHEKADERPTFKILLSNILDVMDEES
Sequence of BTK (Q06187 whole entry): as above
Sequence of p-BTK (C481S) (Q06187 whole entry C481S): as the sequence (Q06187 whole entry) above, with C481S counted along it
Sequence of BTK (C481S) (Q06187 whole entry C481S): as the sequence (Q06187 whole entry) above, with C481S counted along it

| SMILES | IC50 [1] [µM] | IC50 [2] [µM] | IC50 [3] [µM] | IC50 [4] [µM] | IC50 [5] [µM] | IC50 ([5]; Homo sapiens, TMD8, 72 h) [µM] |
| --- | --- | --- | --- | --- | --- | --- |
| CC(=O)N1CC[C@]2(C1)Nc1c(cnc3[nH]cc(C(=O)c4ccc(Oc5ccccc5)cc4Cl)c13)NC2=O (single isomer, unassigned) [Z4-1] | 0.017 | 0.0068 | 0.0708 | 0.0976 | 0.305 | – |
| C[C@@]1(CO)Nc2c(cnc3[nH]cc(C(=O)c4ccc(Oc5ccccc5)cc4Cl)c23)NC1=O (single isomer, unassigned) [Z9-2] | 0.0095 | 0.0108 | 0.0626 | 0.134 | 0.0738 | – |
| O=C(c1ccc(Oc2ccccc2)cc1Cl)c1c[nH]c2ncc3c(c12)N[C@]1(CCCOC1)C(=O)N3 (single isomer, unassigned) [Z16-1] | 0.0076 | 0.0091 | 0.0173 | 0.0366 | 0.0428 | – |
| O=C(c1ccc(Oc2ccccc2)cc1Cl)c1c[nH]c2ncc3c(c12)N[C@@]1(CCCOC1)C(=O)N3 (single isomer, unassigned) [Z16-2] | 0.005 | 0.0056 | 0.0104 | 0.0104 | 0.023 | – |
| O=C(c1ccc(Oc2ccccc2)cc1Cl)c1c[nH]c2ncc3c(c12)N[C@@]1(CC[C@@H](O)C1)C(=O)N3 (single isomer, unassigned) [Z24-a] | 0.0055 | 0.0084 | 0.0469 | 0.05 | 0.113 | – |
| O=C(c1ccc(Oc2ccccc2)cc1Cl)c1c[nH]c2ncc3c(c12)N[C@]1(CC[C@H](O)C1)C(=O)N3 (single isomer, unassigned) [Z24-b] | 0.0042 | 0.0058 | 0.0395 | 0.039 | 0.0808 | – |
| O=C(c1ccc(Oc2ccccc2)cc1Cl)c1c[nH]c2ncc3c(c12)N[C@]1(CC[C@@H](O)C1)C(=O)N3 (single isomer, unassigned) [Z24-c] | 0.0032 | 0.003 | 0.0196 | 0.0162 | 0.0506 | – |
| O=C(c1ccc(Oc2ccccc2)cc1Cl)c1c[nH]c2ncc3c(c12)N[C@@]1(CC[C@H](O)C1)C(=O)N3 (single isomer, unassigned) [Z24-d] | 0.0034 | 0.0031 | 0.0169 | 0.0153 | 0.052 | – |
| COC1CCC2(C1)Nc1c(cnc3[nH]cc(C(=O)c4ccc(Oc5ccccc5)cc4Cl)c13)NC2=O (single isomer, unassigned) [Z25-2, 9′-(2-chloro-4-phenoxybenzoyl)-3-methoxy-4′,7′-dihydrospiro[cyclopentane-1,2′-pyrrolo[3′,2′:5,6]pyrido[3,4-b]pyrazin]-3′(1′H)-one] | 0.0147 | 0.0087 | 0.0152 | 0.0327 | 0.0804 | – |
| N#C[C@@H]1CC[C@]2(C1)Nc1c(cnc3[nH]cc(C(=O)c4ccc(Oc5ccccc5)cc4Cl)c13)NC2=O (single isomer, unassigned) [Z26-1] | 0.0156 | 0.0154 | 0.0315 | 0.0384 | 0.0477 | – |
| CC(=O)N1CCC2(C1)Nc1c(cnc3[nH]cc(C(=O)c4ccc(Oc5ccccc5)cc4Cl)c13)NC2=O (centres unmarked) [Z4] | 0.0171 | 0.0103 | 0.375 | 0.34 | – | – |
| CN1CCC2(C1)Nc1c(cnc3[nH]cc(C(=O)c4ccc(Oc5ccccc5)cc4F)c13)NC2=O (centres unmarked) [Z5] | 0.0278 | 0.012 | 0.0358 | 0.0367 | – | – |
| COCC1(C)Nc2c(cnc3[nH]cc(C(=O)c4ccc(Oc5cc(C)ccn5)cc4Cl)c23)NC1=O (centres unmarked) [Z64, 9-(2-chloro-4-((4-methylpyridin-2-yl)oxy)benzoyl)-2-(methoxymethyl)-2-methyl-1,2,4,7-tetrahydro-3H-pyrrolo[3′,2′:5,6]pyrido[3,4-b]pyrazin-3-one] | 0.0065 | 0.0133 | 0.0658 | 0.09 | – | – |
| CC1(C)Nc2c(cnc3[nH]cc(C(=O)c4ccccc4Cl)c23)NC1=O [Z120, 9-(2-chlorobenzoyl)-2,2-dimethyl-1,2,4,7-tetrahydro-3H-pyrrolo[3′,2′:5,6]pyrido[3,4-b]pyrazin-3-one] | 0.0043 | 0.002 | 0.0025 | 0.001 | – | – |
| COC[C@]1(C)Nc2c(cnc3[nH]cc(C(=O)c4ccc(Oc5cccc(OC)c5)cc4Cl)c23)NC1=O [Z166, (S)-9-(2-chloro-4-(3-methoxyphenoxy)benzoyl)-2-(methoxymethyl)-2-methyl-1,2,4,7-tetrahydro-3H-pyrrolo[3′,2′:5,6]pyrido[3,4-b]pyrazin-3-one] | 0.034 | 0.0594 | – | – | – | 0.245 |
| CCOC[C@]1(C)Nc2c(cnc3[nH]cc(C(=O)c4ccc(Oc5cc(C)ccn5)cc4Cl)c23)NC1=O [Z167, (S)-9-(2-chloro-4-((4-methylpyridin-2-yl)oxy)benzoyl)-2-(ethoxymethyl)-2-methyl-1,2,4,7-tetrahydro-3H-pyrrolo[3′,2′:5,6]pyrido[3,4-b]pyrazin-3-one] | 0.0112 | 0.0121 | – | – | – | 0.372 |
| COC[C@]1(C)Nc2c(cnc3[nH]cc(C(=O)c4ccc(Oc5cccc(F)c5OC)cc4Cl)c23)NC1=O [Z173, (S)-9-(2-chloro-4-(3-fluoro-2-methoxyphenoxy)benzoyl)-2-(methoxymethyl)-2-methyl-1,2,4,7-tetrahydro-3H-pyrrolo[3′,2′:5,6]pyrido[3,4-b]pyrazin-3-one] | 0.0265 | 0.0184 | – | – | – | 0.366 |
| COC[C@]1(C)Nc2c(cnc3[nH]cc(C(=O)c4ccc(Oc5c(OC)ccc(F)c5F)cc4Cl)c23)NC1=O [Z177, (S)-9-(2-chloro-4-(2,3-difluoro-6-methoxyphenoxy)benzoyl)-2-(methoxymethyl)-2-methyl-1,2,4,7-tetrahydro-3H-pyrrolo[3′,2′:5,6]pyrido[3,4-b]pyrazin-3-one] | 0.0064 | 0.0111 | – | – | – | 0.0346 |
| [2H]C([2H])([2H])Oc1c(F)cccc1Oc1ccc(C(=O)c2c[nH]c3ncc4c(c23)N[C@@](C)(COC)C(=O)N4)c(Cl)c1 [Z178, (S)-9-(2-chloro-4-(3-fluoro-2-(methoxy-d3)phenoxy)benzoyl)-2-(methoxymethyl)-2-methyl-1,2,4,7-tetrahydro-3H-pyrrolo[3′,2′:5,6]pyrido[3,4-b]pyrazin-3-one] | 0.0362 | 0.0423 | – | – | – | 0.257 |
| COC[C@]1(C)Nc2c(cnc3[nH]cc(C(=O)c4ccc(F)c(F)c4Cl)c23)NC1=O [Z195, (S)-9-(2-chloro-3,4-difluorobenzoyl)-2-(methoxymethyl)-2-methyl-1,2,4,7-tetrahydro-3H-pyrrolo[3′,2′:5,6]pyrido[3,4-b]pyrazin-3-one] | 0.0039 | 0.0039 | 0.0028 | 0.0014 | – | – |
| O=C(c1ccccc1Cl)c1c[nH]c2ncc3c(c12)NC1(CCOCC1)C(=O)N3 [Z197, 9′-(2-chlorobenzoyl)-2,3,4′,5,6,7′-hexahydrospiro[pyran-4,2′-pyrrolo[3′,2′:5,6]pyrido[3,4-b]pyrazin]-3′(1′H)-one] | 0.003 | 0.0013 | 0.0052 | 0.0016 | – | – |
